Earlier results, collected in PMC10994420, “Development of peptides for targeting cell ablation agents concurrently to the Sertoli and Leydig cell populations of the testes: An approach to non-surgical sterilization” (PLOS ONE, 2024).
Numbered stars: 1 amine (or outer) side, 2 acyl side, 3 side chain; on linkers, the order of the positions; unused ones are H or OH. Square brackets hold non-standard residues; d marks the D form. Peptide text beside a SMILES is read from it. * marks the point of attachment. Dolaproine = CO[C@@H]([C@@H]1CCCN1)[C@@H](C)C(=O)O; Hexanoyl(6-maleimido) = O=C1C=CC(=O)N1CCCCCC(=O)*; Dil = CC[C@H](C)[C@H](NC)[C@@H](CC(=O)O)OC; PABC = O=C(OCc1ccc(N[*:1])cc1)[*:2]; X1 = C[C@@H](N*)[C@@H](O)c1ccccc1; Cit = NC(=O)NCCC[C@H](N)C(=O)O; NMeV = CN[C@H](C(=O)O)C(C)C

How the values were obtained:
[1] = maleimide form with valine-citrulline linker; ref https://www.chemsrc.com/en/cas/646502-53-6_1197872.html
Description: Among these criteria, aqueous solubility was considered an important factor, both in the context of reaction with Auristatin and for use of biocompatible solvents for in vivo delivery.

[2] = no reference given
Procedure: Four treatment groups of ten 55-day-old male Swiss male CD1 mice were injected intraperitoneally. Treatments included: (1) […] vehicle control (30% Solutol (Kolliphor)/PBS), (2) 300 μL/30 g 14.5 mM FSH2Menadione, (3) 100 μL/30g 425 μM LH2Aur, or (4) 300 μL/30 g 14.5 mM FSH2Menadione plus 100 μL/30g 425 μM LH2Aur (consecutive injections, 16 h apart). The dose of 1 mg/kg of conjugated Auristatin was determined with reference to the work by Doronina et al., who determined the maximum tolerated dose (MTD) of conjugated Auristatin for mice is 1.1 mg/kg. Solubility of the FSH2Menadione was ...

Compound	aqueous solubility [1]	logP value [1]	MTD [2] [mg/kg]
CC[C@H](C)[C@@H]([C@@H](CC(=O)N1CCC[C@H]1[C@H](OC)[C@@H](C)C(=O)N[C@H](C)[C@@H](O)c1ccccc1)OC)N(C)C(=O)[C@@H](NC(=O)[C@H](C(C)C)N(C)C(=O)OCc1ccc(NC(=O)[C@H](CCCNC(N)=O)NC(=O)[C@@H](NC(=O)CCCCCN2C(=O)C=CC2=O)C(C)C)cc1)C(C)C [Auristatin, maleimide-valine-citrulline- para-aminobenzyloxycarbonyl -monomethyl-Auristatin E] ({Hexanoyl(6-maleimido)}-V[Cit][PABC][NMeV]V[Dil][Dolaproine]-X1)	very poor	6.04	–
CC1=CC(=O)c2ccccc2C1=O [menadione, 2-methyl-1,4-naphthoquinone]	–	–	830
